Assay results reported in US20250302815A1, “PROTEIN TYROSINE PHOSPHATASE TARGETING LIGANDS” (CALICO LIFE SCIENCES LLC, priority 2021, published 2025).

How the values were obtained:
[1] = target: T1, PTPN2 (HiBIT-PTPN2 in 293T.109 cells) (Homo sapiens, UniProt P17706); test: HiBiT Degradation 293T.109 PTPN2 (Nano-Glo HiBiT Lytic Assay); format: cell-based; conditions: 24.0 hours
T1 construct: expressed in transfected cells; host or cells: 293T.109 (293T WT from ATCC)
T1 sequence (P17706 1-415): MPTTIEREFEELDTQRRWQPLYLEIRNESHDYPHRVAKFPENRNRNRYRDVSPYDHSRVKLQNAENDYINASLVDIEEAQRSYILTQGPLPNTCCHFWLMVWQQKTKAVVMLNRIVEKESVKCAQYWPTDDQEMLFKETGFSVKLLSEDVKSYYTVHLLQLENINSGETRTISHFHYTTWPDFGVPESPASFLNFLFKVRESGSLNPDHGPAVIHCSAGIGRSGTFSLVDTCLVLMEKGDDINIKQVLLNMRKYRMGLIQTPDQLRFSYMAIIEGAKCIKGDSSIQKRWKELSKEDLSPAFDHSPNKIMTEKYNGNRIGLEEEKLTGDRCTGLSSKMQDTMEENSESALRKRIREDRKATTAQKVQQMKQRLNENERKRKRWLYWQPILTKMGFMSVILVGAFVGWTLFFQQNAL
Source text: Dulbecco's modified Eagle medium (DMEM) without phenol red and fetal bovine serum (FBS) were purchased from Gibco (Grand Island, NY, USA). Nano-Glo® HiBIT Lytic Assay System was purchased from Promega (Madison, WI, USA). 293T.109 (HiBIT-PTPN2) cell line was generated by ectopically expressing PTPN2 with N-terminal HiBIT fusion tag in 293T WT cell line purchased from ATCC (Manassas, VA, USA). Cell culture flasks and 384-well microplates were acquired from VWR (Radnor, PA, USA).
PTPN2 degradation was determined based on quantification of luminescent signal using Nano-Glo® HiBIT Lytic Assay kit. Test compounds were added to the 384-well plate from a top concentration of 10 μM with 11 points, half log titration in duplicates. 293T.109 cells were added into 384-well plates at a cell density of 5000 cells per well. The plates were kept at 37° C. with 5% CO2 for 24 hours. The cells treated in the absence of the test compound were the negative control and the cells without Nano-Glo® HiBIT Lytic reagent were the positive control. After 24-hour incubation, Nano-Glo® HiBiT Lytic Assay reagents were added to the cells. Luminescence was acquired on EnVision™ Multilabel Reader (PerkinElmer, Santa Clara, CA, USA).

PTPN2 (B16F10.4 cells) = target: T2, PTPN2 (B16F10.4 cells) (Mus musculus, UniProt Q06180); test: HiBiT Degradation B16F10.4 PTPN2; format: cell-based; conditions: 24.0 hours
T2 construct: HiBiT; host or cells: B16F10.4
T2 sequence (Q06180 1-406): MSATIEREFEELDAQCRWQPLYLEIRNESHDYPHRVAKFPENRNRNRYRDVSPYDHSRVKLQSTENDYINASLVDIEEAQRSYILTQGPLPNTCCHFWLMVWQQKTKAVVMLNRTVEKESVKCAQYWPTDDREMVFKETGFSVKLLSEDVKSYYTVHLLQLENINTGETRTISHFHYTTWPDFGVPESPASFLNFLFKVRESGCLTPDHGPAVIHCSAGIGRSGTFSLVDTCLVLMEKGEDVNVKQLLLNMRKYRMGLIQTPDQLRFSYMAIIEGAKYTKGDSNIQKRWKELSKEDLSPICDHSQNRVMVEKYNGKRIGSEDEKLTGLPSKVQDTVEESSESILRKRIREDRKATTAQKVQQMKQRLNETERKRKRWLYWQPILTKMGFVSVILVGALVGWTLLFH

Row | Structure (SMILES) | DC50 [1] [nM] | DC50 (PTPN2 (B16F10.4 cells)) [nM]
1 | CCn1c(=O)n(C2CCC(=O)NC2=O)c2ccc(C3CCN(C(=O)Nc4cccc(CS(=O)(=O)N5CC[C@H](Nc6cccc(-c7sc(C(=O)O)c(OCC(=O)O)c7Cl)c6)CC5(C)C)c4)CC3)cc21 (stereo partly drawn) [Example 88, 3-(carboxymethoxy)-4-chloro-5-(3-(((4S)-1-((3-(4-(1-(2,6-dioxopiperidin-3-yl)-3-ethyl-2-oxo-2,3-dihydro-1H-benzo[d]imidazol-5-yl)piperidine-1-carboxamido)benzyl)sulfonyl)-2,2-dimethylpiperidin-4-yl)amino)phenyl)thiophene-2-carboxylic acid] | < 50 | 50 to 200
2 | CC1(C)C[C@@H](Nc2cccc(-c3sc(C(=O)O)c(OCC(=O)O)c3Cl)c2)CCN1S(=O)(=O)Cc1cccc(NC(=O)[C@H]2CC[C@H](C(=O)Nc3cccc4c3CN(C3CCC(=O)NC3=O)C4=O)CC2)c1 (stereo partly drawn) [Example 86, 3-(carboxymethoxy)-4-chloro-5-(3-(((4S)-1-((3-((1r,4R)-4-((2-(2,6-dioxopiperidin-3-yl)-1-oxoisoindolin-4-yl)carbamoyl)cyclohexane-1-carboxamido)benzyl)sulfonyl)-2,2-dimethylpiperidin-4-yl)amino)phenyl)thiophene-2-carboxylic acid] | 50 to 200 | 200 to 1000
3 | CC1(C)C[C@@H](Nc2cccc(-c3sc(C(=O)O)c(OCC(=O)O)c3Cl)c2)CCN1S(=O)(=O)Cc1cccc(NC(=O)N2CCN(C(=O)CCc3cccc4c3CN(C3CCC(=O)NC3=O)C4=O)CC2)c1 (some centres unmarked) [Example 64] | 200 to 1000 | 200 to 1000
4 | CC1(C)C[C@@H](Nc2cccc(-c3sc(C(=O)O)c(OCC(=O)O)c3Cl)c2)CCN1S(=O)(=O)Cc1cccc(NC(=O)OC2CN(C(=O)CNc3cccc4c3CN(C3CCC(=O)NC3=O)C4=O)C2)c1 (stereo partly drawn) [Example 96, 3-(carboxymethoxy)-4-chloro-5-[3-[[(4S)-1-[[3-[[1-[2-[[2-(2,6-dioxo-3-piperidyl)-1-oxo-isoindolin-4-yl]amino]acetyl]azetidin-3-yl]oxycarbonylamino]phenyl]methylsulfonyl]-2,2-dimethyl-4-piperidyl]amino]phenyl]thiophene-2-carboxylic acid] | 50 to 200 | 200 to 1000
5 | CC1(C)C[C@@H](Nc2cccc(-c3sc(C(=O)O)c(OCC(=O)O)c3Cl)c2)CCN1S(=O)(=O)Cc1cccc(NC(=O)C2C[C@@H]3CN(C(=O)CNc4cccc5c4CN(C4CCC(=O)NC4=O)C5=O)C[C@@H]3C2)c1 (stereo partly drawn) [Example 97, 5-[3-[[(4S)-1-[[3-[[(3aR,6aS)-2-[2-[[2-(2,6-dioxo-3-piperidyl)-1-oxo-isoindolin-4-yl]amino]acetyl]-3,3a,4,5,6,6a-hexahydro-1H-cyclopenta[c]pyrrole-S-carbonyl]amino]phenyl]methylsulfonyl]-2,2-dimethyl-4-piperidyl]amino]phenyl]-3-(carboxymethoxy)-4-chloro-thiophene-2-carboxylic acid] | 200 to 1000 | ≥ 1000
6 | O=C(O)COc1c(C(=O)O)sc(-c2cccc(NC3CCN(S(=O)(=O)Cc4ccc(F)c(NC(=O)C5CN(C(=O)CNc6cccc7c6CN(C6CCC(=O)NC6=O)C7=O)C5)c4)CC3)c2)c1Cl (centres unmarked) [Example 78] | < 50 | ≥ 1000
7 | O=C(O)COc1c(C(=O)O)sc(-c2cccc(NC3CCN(S(=O)(=O)Cc4cccc(NC(=O)C5CCN(C(=O)CNc6cccc7c6CN(C6CCC(=O)NC6=O)C7=O)CC5)c4F)CC3)c2)c1Cl (centres unmarked) [Example 73, 3-(carboxymethoxy)-4-chloro-5-(3-((1-((3-(1-((2-(2,6-dioxopiperidin-3-yl)-1-oxoisoindolin-4-yl)glycyl)piperidine-4-carboxamido)-2-fluorobenzyl)sulfonyl)piperidin-4-yl)amino)phenyl)thiophene-2-carboxylic acid] | 50 to 200 | ≥ 1000
8 | CC1(C)C[C@@H](Nc2cccc(-c3sc(C(=O)O)c(OCC(=O)O)c3Cl)c2)CCN1S(=O)(=O)Cc1cccc(NC(=O)[C@H]2[C@@H]3CN(C(=O)CNc4cccc5c4CN(C4CCC(=O)NC4=O)C5=O)C[C@@H]32)c1 (some centres unmarked) [Example 98] | 50 to 200 | 200 to 1000

More lines, now with the values ahead:

Row | DC50 [1] [nM] | DC50 (PTPN2 (B16F10.4 cells)) [nM] | Structure (SMILES)
9 | < 50 | 50 to 200 | CC1(C)C[C@@H](Nc2cccc(-c3sc(C(=O)O)c(OCC(=O)O)c3Cl)c2F)CCN1S(=O)(=O)Cc1ccc(F)c(NC(=O)C2CN(C(=O)CNc3cccc4c3CN(C3CCC(=O)NC3=O)C4=O)C2)c1 (stereo partly drawn) [Example 148, 3-(carboxymethoxy)-4-chloro-5-[3-[[(4S)-1-[[3-[[1-[2-[[2-(2,6-dioxo-3-piperidyl)-1-oxo-isoindolin-4-yl]amino]acetyl]azetidine-3-carbonyl]amino]-4-fluoro-phenyl]methylsulfonyl]-2,2-dimethyl-4-piperidyl]amino]-2-fluoro-phenyl]thiophene-2-carboxylic acid]
10 | 200 to 1000 | 50 to 200 | Cn1c(=O)n(C2CCC(=O)NC2=O)c2ccc(C3CCN(C(=O)Nc4cccc(CS(=O)(=O)N5CC[C@@H](Nc6cccc(-c7sc(C(=O)O)c(OCC(=O)O)c7Cl)c6)CC5(C)C)c4F)CC3)cc21 (some centres unmarked) [Example 131]
11 | 50 to 200 | 50 to 200 | Cn1nc(C2CCC(=O)NC2=O)c2ccc(C3CCN(C(=O)Nc4cccc(CS(=O)(=O)N5CC[C@H](Nc6cccc(-c7sc(C(=O)O)c(OCC(=O)O)c7Cl)c6)CC5(C)C)c4)CC3)cc21 (stereo partly drawn) [Example 143, 3-(carboxymethoxy)-4-chloro-5-[3-[[(4S)-1-[[3-[[4-[3-(2,6-dioxo-3-piperidyl)-1-methyl-indazol-6-yl]piperidine-1-carbonyl]amino]phenyl]methylsulfonyl]-2,2-dimethyl-4-piperidyl]amino]phenyl]thiophene-2-carboxylic acid]
12 | < 50 | < 50 | Cn1c(=O)n(C2CCC(=O)NC2=O)c2ccc(C3CCN(C(=O)Nc4cccc(CS(=O)(=O)N5CC[C@H](Nc6cccc(-c7sc(C(=O)O)c(OCC(=O)O)c7Cl)c6F)CC5(C)C)c4)CC3)cc21 (stereo partly drawn) [Example 134, 3-(carboxymethoxy)-4-chloro-5-[3-[[(4S)-1-[[3-[[4-[1-(2,6-dioxo-3-piperidyl)-3-methyl-2-oxo-benzimidazol-S-yl]piperidine-1-carbonyl]amino]phenyl]methylsulfonyl]-2,2-dimethyl-4-piperidyl]amino]-2-fluoro-phenyl]thiophene-2-carboxylic acid]
13 | < 50 | < 50 | Cn1c(=O)n([C@@H]2CCC(=O)NC2=O)c2ccc(C3CCN(C(=O)Nc4cccc(CS(=O)(=O)N5CC[C@H](Nc6cccc(-c7sc(C(=O)O)c(OCC(=O)O)c7Cl)c6)CC5(C)C)c4)CC3)cc21 (single isomer, unassigned) [Example 235]
14 | 50 to 200 | < 50 | Cn1c(=O)n(C2CCC(=O)NC2=O)c2ccc(C3CCN(C(=O)Nc4cc(CS(=O)(=O)N5CCC(Nc6cccc(-c7sc(C(=O)O)c(OCC(=O)O)c7Cl)c6)CC5)ccc4F)CC3)cc21 (centres unmarked) [Example 104, 3-(carboxymethoxy)-4-chloro-5-[3-[[1-[[3-[[4-[1-(2,6-dioxo-3-piperidyl)-3-methyl-2-oxo-benzimidazol-5-yl]piperidine-1-carbonyl]amino]-4-fluoro-phenyl]methylsulfonyl]-4-piperidyl]amino]phenyl]thiophene-2-carboxylic acid]
15 | 50 to 200 | < 50 | CC1(C)C[C@@H](Nc2cccc(-c3sc(C(=O)O)c(OCC(=O)O)c3Cl)c2)CCN1S(=O)(=O)Cc1cc(NC(=O)N2CCC(c3ccc4c5c(cccc35)C(=O)N4C3CCC(=O)NC3=O)CC2)ccc1F (stereo partly drawn) [Example 161, 3-(carboxymethoxy)-4-chloro-5-[3-[[(4S)-1-[[5-[[4-[1-(2,6-dioxo-3-piperidyl)-2-oxo-benzo[cd]indol-6-yl]piperidine-1-carbonyl]amino]-2-fluoro-phenyl]methylsulfonyl]-2,2-dimethyl-4-piperidyl]amino]phenyl]thiophene-2-carboxylic acid]
16 | 200 to 1000 | 50 to 200 | CC1(C)C[C@@H](Nc2cccc(-c3sc(C(=O)O)c(OCC(=O)O)c3Cl)c2)CCN1S(=O)(=O)Cc1cccc(N2CCN(CCCc3ccc4c5c(cccc35)C(=O)N4C3CCC(=O)NC3=O)C2=O)c1 (some centres unmarked) [Example 202]
